US20050026836A1, “Composition for the treatment of damaged tissue” (priority 1999, published 2005)

Legend:
[1] = biological target: T1, catalytic domain of human MMP-3 (Homo sapiens, UniProt P08254); experiment: MMP-3 fluorogenic inhibition assay; assay type: biochemical
T1 construct: made in house
Description: All enzymes were pre-activated at 37° C. with aminophenylmercuric acetate (APMA) or trypsin before being made up to the final concentrations used in the assay.
For MMP-1, the assay buffer used was 50 mM Tris, 200 mM NaCl, 5 mM CaCl2, 20 μM ZnCl2, 0.05% (w/v) Brij 35, pH 7.5. […] For MMP-13, the assay buffer used was 50 mM Tris, pH 7.5, 200 mM NaCl, 5 mM CaCl2, […] and 0.02% (w/v) Brij 35.
MMP-2, MMP-3 and MMP-9 inhibition was assayed by incubating activated catalytic domain of human MMP-2, MMP-3 and MMP-9 at 1 nM in assay buffer with 5 μM substrate Mca-Arg-Pro-Lys-Pro-Tyr-Ala-Nva-Trp-Met-Lys(Dnp)-NH2, and six different concentrations of inhibitor. The incubation was performed at 37° C. for 60 minutes.
For MMP-2, the final assay concentrations of inhibitors used were 1000, 800, 600, 400, 200 and 100 nM. For MMP-3, the final assay concentrations of inhibitors used were 5, 4, 3, 2, 1 and 0.5 nM. For MMP-9 and MMP-14, the final assay concentrations of inhibitors used were 5, 4, 3, 2, 1 and 0.5 μM.
All assays were carried out in a black 96-well plate with a final volume of 100 μl in each well. Inhibitors were dissolved in dimethylsulphoxide (DMSO) to 1 mM. Solutions were then serially diluted in buffer to give the final concentrations shown.
These were estimated using the following equation: IC50=(Ki*[…], where S is the substrate concentration and Km the Michaelis-Menton coefficient. Serine Protease Assays

uPA and MMP-3 = experiment: Inhibition of uPA and MMP-3-mediated KGF-2 degradation (dual protease assay); assay type: biochemical, human; conditions: uPA and MMP-3 together / KGF-2; inhibitors used (100 μM), alone or in combination
Description: The extent of proteolysis of the growth factors was assayed by incubating TGF-β2, VEGF, PDGF-BB and KGF-2 with the proteases uPA, plasmin, MMP-3 and MMP-13 in assay buffer (either uPA/plasmin buffer, 50 mM tris-HCl, pH 7.4 or MMP assay buffer, 100 mM Tris, 10 mM NaCl, 10 mM CaCl2, 0.05% (w/v) Brij 35, pH 7.5). […] The growth factors were added to the incubation mixture at a final concentration of […], unless otherwise stated.
The effects of uPA were determined by incubation at a typical final concentration of 25 μg/ml (1500 U/ml) with each growth factor. The effects of plasmin were determined at a typical final concentration of 0.1 mg/ml by incubation with the individual growth factors in assay buffer. MMP-3 and -13 were incubated at a typical final concentration of 10 nM with the growth factors in assay buffer. Dual protease assays carried out with uPA and MMP-3 together were performed in 100 mM Tris, […], 10 mM CaCl2, 0.05% (w/v) Brij 35, pH 7.5. All incubations were performed in siliconised tubes (Sigma Aldrich, UK).
The inhibitors used in these experiments were compound 9454, compound 9470 and compound 5214. These were dissolved in DMSO at a concentration of 10 mM. Typical final concentrations for these inhibitors were in the range of 100 μM to 10 nM. Aprotinin was dissolved in the Tris buffer at 10 mg/ml and used at a typical concentration of 10 μg/ml. […]

T1 sequence (P08254 100-272 limits assumed): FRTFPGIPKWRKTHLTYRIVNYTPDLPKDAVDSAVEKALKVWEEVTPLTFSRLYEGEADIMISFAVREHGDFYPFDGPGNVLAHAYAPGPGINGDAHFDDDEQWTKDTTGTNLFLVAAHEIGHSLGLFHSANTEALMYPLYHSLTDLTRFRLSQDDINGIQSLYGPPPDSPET

Selectivity among MMPs (in words) ([1]; from Ki values of Table 3 (MMP-1, -2, -3, -9, -13, -14)): selective MMP-3 inhibitor
Ki ([1]; read-out: Calculated Ki(nM) MMP-3): 44 nM
Structure (SMILES): COC[C@@H](NC(=O)[C@@H](NC(=O)[C@H](CCCc1ccc(-c2cccc(OC)c2)c(C)c1)CC(=O)O)C(C)(C)C)c1ccccc1 [compound 9454, (3R)-3-({[(1S)-2,2-Dimethyl-1-({[(1S)-2-methoxy-1-phenylethyl]amino}carbonyl)propyl]amino}carbonyl)-6-(3′-methoxy-2-methylbiphen-4-yl)hexanoic acid]
Percentage inhibition of proteolysis (uPA and MMP-3): 16.3
